Results: patent US20260365690A1, “COMPOUND FOR RNA CAPPING AND USE THEREOF” (GUANGZHOU HENOVCOM BIOSCIENCE CO., LTD., priority 2022, published 2026)

Legend:
mRNA [1] = test: Capping efficiency of mRNA by LC-MS; type: biochemical; conditions: cap analog 4 mM in in vitro transcription, RNase H cleaved 5′ fragment
Procedure: (§1) 1) The plasmids were linearized and the DNA templates were purified.
(§2) 2) The mRNA was synthesized by in vitro transcription, using 11 cap structures of the present disclosure, positive control CleanCap®AG (3′OMe) (Trilink, N-7413), negative control (uncapped mRNA) and blank control (DNase/RNase-Free water), respectively.
(§3) The reaction was carried out at 37 °C for 2 to 3 hours. TURBO DNase digestion was carried out for 15 minutes. The mRNA was precipitated by LiC for 30 min or more or overnight, and the mRNA precipitate was washed with 75% ethanol, dried briefly to evaporate the ethanol, and the mRNA was redissolved with RNase-Free water.
Gradient annealing was performed in a PCR instrument: […]
5) Magnetic beads were pre-treated and bound to probes.
100 μL of magnetic beads were taken and placed on a magnetic stand. The storage solution was discarded, and 100 μL of 1*BW solution was added thereto. After mixing well, the mixture was placed on the magnetic stand, and the supernatant was discarded. The wash was carried out three times in the same way. 100 μL of wash A buffer was added thereto. After mixing well, the mixture was placed on the magnetic stand, and the supernatant was discarded. The wash was carried out three times in the same way. 100 μL of wash B buffer was added thereto. After mixing well, the mixture was placed on the magnetic stand, and the supernatant was discarded. The wash was carried out three times in the same way. 120 μL of the sample was added to the magnetic bead solution and incubated for 30 min at room temperature with gentle mixing while incubating.
6) The mRNA was cut to obtain the 5′ single-stranded sequence of mRNA bound to probes.
20 μL of RNase H (5 U/μL) was added thereto, incubated at 37 °C for 3 hours, and mixed well every half hour. 100 μL of 1*BW solution was added thereto. After mixing well, the mixture was placed on the magnetic stand, and the supernatant was discarded. The wash was carried out three times in the same way. 100 μL of deionized water solution was added thereto. After mixing well, the mixture was placed on the magnetic stand, and the supernatant was discarded. The wash was carried out three times in the same way. 100 μL of 75% methanol was added thereto at 80 °C, then the mixture was heated to 80 °C on a heating plate and held for 3 min, placed on the magnetic stand, and the supernatant was aspirated. The sample was dried at room temperature for 45 min to 10 μL using an evaporative centrifuge and then resuspended in 50 μL of 100 μM EDTA/1% MeOH for LC-MS analysis.
LC-MS was used to analyze the capping efficiency of mRNA synthesized by analogues with different cap structures. The capping efficiency results of some compounds in the detection results are now provided.

mRNA [2] = test: mRNA synthesis by in vitro transcription (co-transcriptional capping), final product mass; type: biochemical; conditions: obtained from 20 μL mRNA synthesis reaction system; T7 RNA Polymerase; cap analog 4 mM; 37 °C, 2 to 3 hours
Procedure: as §1, §2, §3
3) The transcription product was purified, and the reaction yield was calculated to provide the test results of some compounds, as shown in Table 2.

HEK293T cells = test: Expression efficiency of capped luciferase mRNAs in HEK293T cells; type: cell-based; conditions: 6 h after transfection of capped luciferase mRNA into HEK293T cells; ratio to N-7413 (= 1)
Procedure: 2. Evaluation of Expression Efficiency of Different Capped Luciferase mRNAs in HEK293T Cells
1) HNE293T cells were cultured in DMEM medium containing 10% FBS and penicillin/streptomycin at 37 °C and 5% CO2.
2) The cultured HEK293T cells were spread in a 96-well plate with 1.25×10^4 cells per well.
3) After the cells completely adhered to the wall, 0.5 μg of a mixture of mRNA sample and Polyplus jetMESSENGER was added to each well of cells, and cultured at 37 °C and 5% CO2 for 6 hours.
4) The growth medium was removed from the cells to be tested and the cells were rinsed with PBS. After centrifugation to remove PBS, 50 μL of 1× lysis buffer was added thereto, and cells and all liquid were transferred to a microcentrifuge tube, and then centrifuged at 12000×g and 4 °C for 2 min.
5) The supernatant was transferred to a new tube. Fluorescence readings were detected using the ONE-Glo Luciferase Assay System Kit.
3. All compounds, N-7413, negative control and blank control were tested under the same conditions, and some experimental results in the test results are shown in Table 5.
The relative fluorescence reading results (6 h) after transfection of capped mRNA into 293T cells are now provided, as shown in Table 5. It can be seen from the FIGURE that the mRNA capped by the compound of the present disclosure has a high expression level, and some cap structures can enable higher expression efficiency of mRNA compared to N-7413.

Row | SMILES | Capping efficiency (mRNA [1]) | Final product mass (mRNA [2]) | Relative fluorescence reading (HEK293T cells)
1 | CO[C@@H]1[C@H](OP(=O)(O)OC[C@H]2O[C@@H](n3cnc4c(=O)[nH]c(N)nc43)[C@H](O)[C@@H]2O)[C@@H](COP(=O)(O)OP(=O)(O)OP(=O)(O)OC[C@H]2O[C@@H](n3c[n+](C)c4c(=O)[nH]c(N)nc43)[C@H](O)[C@@H]2CCF)O[C@H]1n1cnc2c(N)ncnc21 [Compound 19] | A (100% > A ≥ 95%) | 137 µg | 1.52
2 | CO[C@@H]1[C@H](OP(=O)(O)OC[C@H]2O[C@@H](n3cnc4c(=O)[nH]c(N)nc43)[C@H](O)[C@@H]2O)[C@@H](COP(=O)(O)OP(=O)(O)OP(=O)(O)OC[C@H]2O[C@@H](n3c[n+](C)c4c(=O)[nH]c(N)nc43)[C@H](O)[C@@H]2NC(C)=O)O[C@H]1n1cnc2c(N)ncnc21 [Compound 289] | A (100% > A ≥ 95%) | 113 µg | 1.70
3 | CCC[C@H]1[C@@H](O)[C@H](n2c[n+](C)c3c(=O)[nH]c(N)nc32)O[C@@H]1COP(=O)(O)OP(=O)(O)OP(=O)(O)OC[C@H]1O[C@@H](n2cnc3c(N)ncnc32)[C@H](OC)[C@@H]1OP(=O)(O)OC[C@H]1O[C@@H](n2cnc3c(=O)[nH]c(N)nc32)[C@H](O)[C@@H]1O.[Na+] [Compound 5] | A (100% > A ≥ 95%) | 117 µg | 1.85
4 | CO[C@@H]1[C@H](OP(=O)(O)OC[C@H]2O[C@@H](n3cnc4c(=O)[nH]c(N)nc43)[C@H](O)[C@@H]2O)[C@@H](COP(=O)(O)OP(=O)(O)OP(=O)(O)OC[C@H]2O[C@@H](n3c[n+](C)c4c(=O)[nH]c(N)nc43)[C@H](O)[C@@H]2C)O[C@H]1n1cnc2c(N)ncnc21 [Compound 1] | A (100% > A ≥ 95%) | 96 µg | 1.74
